PMC12775434, “Ultra-large virtual screening unveils potent agonists of the neuromodulatory orphan receptor GPR139” (Nature Communications, 2025)
“And” between values parts separate entries of the source, which are not always exact repeats. Identical values can stand only once. Blank lines part the entries; values can stand above or below the molecule they belong to.

How the values were obtained:
Type in all cases: cell-based
GPR139 [1] = biological target: T1, GPR139 (Homo sapiens, UniProt Q6DWJ6); test: Ca2+ mobilization assay, agonist mode, stable GPR139-CHOk1 cell line; conditions: for change in potency with larger substituents on the thiophene ring: Ca2+ mobilization; for EC50 / Emax: Supplementary Table 2, mean ± SEM; for EC50: read-out: pEC50 Ca2+ (converted); for Emax: normalized to Lundbeck Cmp 1a, read-out: Emax (%) Ca2+
T1 sequence (Q6DWJ6 1-353): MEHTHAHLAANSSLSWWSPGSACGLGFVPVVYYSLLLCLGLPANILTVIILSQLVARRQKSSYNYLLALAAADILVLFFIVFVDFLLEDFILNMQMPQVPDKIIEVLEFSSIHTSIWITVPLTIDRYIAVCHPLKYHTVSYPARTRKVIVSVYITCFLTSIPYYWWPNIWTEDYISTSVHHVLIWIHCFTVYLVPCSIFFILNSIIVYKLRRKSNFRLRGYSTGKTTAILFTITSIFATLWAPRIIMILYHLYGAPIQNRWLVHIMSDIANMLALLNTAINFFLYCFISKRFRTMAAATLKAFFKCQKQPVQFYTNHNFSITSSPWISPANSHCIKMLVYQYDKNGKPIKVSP
Procedure, shortened: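 Agonist activity of compounds is assessed in stably transfected CHO-K1 cells using the calcium dye Fluo-4 at 37 °C in HEPES-buffered HBSS (pH 7.4). Efficacy is expressed relative to the reference agonist Lundbeck Cmp 1a, set as 100%.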

GPR139 [2] = biological target: T1, GPR139; test: Ca2+ mobilization assay, antagonist mode (EC80 800 nM Lundbeck Cmp 1a after 20 min preincubation), GPR139-CHOk1; conditions: individual replicates (Supplementary Figure 4)
Procedure, shortened: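 Fluo-4-loaded GPR139-CHOk1 cells in HEPES-buffered HBSS (pH 7.4, 2.5 mM probenecid) given test compounds at 10 µM, then after 20 min challenged with 800 nM Lundbeck Cmp 1a (EC80). Calcium fluorescence read at 37 °C, 485/525 nm.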

[3] = biological target: T2, human muscarinic acetylcholine M1 receptor (M1R) (Homo sapiens, UniProt P11229); test: Ca2+ mobilization counter-screen in M1R-CHOk1 cells; conditions: individual replicates (Supplementary Figure 5)
T2 sequence (P11229 1-460): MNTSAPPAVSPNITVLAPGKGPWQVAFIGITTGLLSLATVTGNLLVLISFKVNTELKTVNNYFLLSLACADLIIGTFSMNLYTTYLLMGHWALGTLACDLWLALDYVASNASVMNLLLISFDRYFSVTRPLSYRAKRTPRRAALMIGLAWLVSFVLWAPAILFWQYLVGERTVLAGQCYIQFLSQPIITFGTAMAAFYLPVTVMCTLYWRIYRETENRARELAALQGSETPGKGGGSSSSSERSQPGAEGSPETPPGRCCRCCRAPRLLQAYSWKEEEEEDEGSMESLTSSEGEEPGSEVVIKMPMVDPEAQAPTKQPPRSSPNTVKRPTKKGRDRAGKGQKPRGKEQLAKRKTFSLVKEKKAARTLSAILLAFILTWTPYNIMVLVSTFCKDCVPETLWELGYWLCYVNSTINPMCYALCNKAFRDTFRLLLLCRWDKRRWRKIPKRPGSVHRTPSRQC
Procedure, shortened: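 Intracellular calcium is tracked by Fluo-4 fluorescence at 37 °C in M1R-CHOk1 cells, with compounds dispensed automatically once baseline is taken. Buffer is HBSS with 20 mM HEPES, pH 7.4, plus 2.5 mM probenecid.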

[4] = Agonist mode, individual replicates (Supplementary Figure 4)
[5] = log [Compound] M = -4.5, individual replicate columns
[6] = log [Compound] M = -5.0, individual replicate columns
[7] = log [Compound] M = -5.5, individual replicate columns
[8] = log [Compound] M = -6.0, individual replicate columns
[9] = log [Compound] M = -6.5, individual replicate columns
[10] = log [Compound] M = -7.0, individual replicate columns
[11] = log [Compound] M = -7.5, individual replicate columns
[12] = log [Compound] M = -8.0, individual replicate columns
[13] = log [Compound] M = -8.5, individual replicate columns
[14] = log [Compound] M = -9.0, individual replicate columns

SMILES: Cc1cnc2ccc(-c3nc(CC(=O)NC(C)c4ccccc4)no3)cn12 (centres unmarked) [Compound 1.40, CC(NC(=O)CC1=NOC(=N1)C=2C=CC3=NC=C(C)N3C2)C=4C=CC=CC4]
Ca2+ signal (% of Cmp 1a) (GPR139 [1]; [4]): 51 % of Cmp 1a and 56 % of Cmp 1a | change in potency with larger substituents on the thiophene ring (GPR139 [1]): three-fold reduction to a complete loss of activity | EC50 (GPR139 [1]): 3.16 µM | Emax (GPR139 [1]): 86 ± 7% | Ca2+ signal (% of Cmp 1a) (GPR139 [1]; [5]): 93 % of Cmp 1a and 71 % of Cmp 1a and 89 % of Cmp 1a | Ca2+ signal (% of Cmp 1a) (GPR139 [1]; [6]): 80 % of Cmp 1a and 64 % of Cmp 1a and 78 % of Cmp 1a | Ca2+ signal (% of Cmp 1a) (GPR139 [1]; [7]): 57 % of Cmp 1a and 35 % of Cmp 1a and 53 % of Cmp 1a | Ca2+ signal (% of Cmp 1a) (GPR139 [1]; [8]): 32 % of Cmp 1a and 13 % of Cmp 1a and 17 % of Cmp 1a | Ca2+ signal (% of Cmp 1a) (GPR139 [1]; [9]): 17 % of Cmp 1a and -10 % of Cmp 1a and -16 % of Cmp 1a | Ca2+ signal (% of Cmp 1a) (GPR139 [1]; [10]): 21 % of Cmp 1a and -2.33 % of Cmp 1a and -20 % of Cmp 1a | Ca2+ signal (% of Cmp 1a) (GPR139 [1]; [11]): 0 % of Cmp 1a and 1.33 % of Cmp 1a and 22 % of Cmp 1a | Ca2+ signal (% of Cmp 1a) (GPR139 [1]; [12]): 11 % of Cmp 1a and 0.667 % of Cmp 1a and 28 % of Cmp 1a | Ca2+ signal (% of Cmp 1a) (GPR139 [1]; [13]): 16 % of Cmp 1a and -6.33 % of Cmp 1a and 31 % of Cmp 1a | Ca2+ signal (% of Cmp 1a) (GPR139 [1]; [14]): 20 % of Cmp 1a and -7 % of Cmp 1a and 0.667 % of Cmp 1a | Ca2+ signal (% of Cmp 1a) (GPR139 [2]): 23 % of Cmp 1a and 31 % of Cmp 1a and 12 % of Cmp 1a | Ca2+ signal (% of Carbachol) [3]: -14 % of Carbachol and -5 % of Carbachol and -4.33 % of Carbachol

EC50 (GPR139 [1]): 1.58 µM | Emax (GPR139 [1]): 67 ± 4% | Ca2+ signal (% of Cmp 1a) (GPR139 [1]; [12]): -4.33 % of Cmp 1a and 0 % of Cmp 1a (2×)
SMILES: CC(C)c1ccc(-c2nc(CC(=O)NC(C)c3ccccc3)no2)s1 (centres unmarked) [Compound 1.41, CC(C)C1=CC=C(S1)C2=NC(CC(=O)NC(C)C=3C=CC=CC3)=NO2]
Ca2+ signal (% of Cmp 1a) (GPR139 [1]; [4]): 66 % of Cmp 1a and 76 % of Cmp 1a and 60 % of Cmp 1a | change in potency with larger substituents on the thiophene ring (GPR139 [1]): three-fold reduction to a complete loss of activity | Ca2+ signal (% of Cmp 1a) (GPR139 [1]; [5]): 69 % of Cmp 1a and 62 % of Cmp 1a and 57 % of Cmp 1a | Ca2+ signal (% of Cmp 1a) (GPR139 [1]; [6]): 70 % of Cmp 1a and 71 % of Cmp 1a and 40 % of Cmp 1a | Ca2+ signal (% of Cmp 1a) (GPR139 [1]; [7]): 56 % of Cmp 1a and 47 % of Cmp 1a and 25 % of Cmp 1a | Ca2+ signal (% of Cmp 1a) (GPR139 [1]; [8]): 34 % of Cmp 1a and 27 % of Cmp 1a and 22 % of Cmp 1a | Ca2+ signal (% of Cmp 1a) (GPR139 [1]; [9]): 15 % of Cmp 1a and 0.333 % of Cmp 1a and 5.33 % of Cmp 1a | Ca2+ signal (% of Cmp 1a) (GPR139 [1]; [10]): 13 % of Cmp 1a and -9 % of Cmp 1a and 4.33 % of Cmp 1a | Ca2+ signal (% of Cmp 1a) (GPR139 [1]; [11]): -1.33 % of Cmp 1a and -6.33 % of Cmp 1a and 3 % of Cmp 1a | Ca2+ signal (% of Cmp 1a) (GPR139 [1]; [13]): 0 % of Cmp 1a and -2.67 % of Cmp 1a and 0.333 % of Cmp 1a | Ca2+ signal (% of Cmp 1a) (GPR139 [1]; [14]): -1.67 % of Cmp 1a and -4.33 % of Cmp 1a and -2.33 % of Cmp 1a | Ca2+ signal (% of Cmp 1a) (GPR139 [2]): 24 % of Cmp 1a and 11 % of Cmp 1a and -0.667 % of Cmp 1a | Ca2+ signal (% of Carbachol) [3]: -18 % of Carbachol and 8 % of Carbachol and -8 % of Carbachol

EC50 (GPR139 [1]): 2 µM | Emax (GPR139 [1]): 78 ± 3%
SMILES: CCc1nc(-c2nc(CC(=O)NC(C)c3ccccc3)no2)co1 (centres unmarked) [Compound 1.42, CCC1=NC(=CO1)C2=NC(CC(=O)NC(C)C=3C=CC=CC3)=NO2]
Ca2+ signal (% of Cmp 1a) (GPR139 [1]; [4]): 76 % of Cmp 1a and 54 % of Cmp 1a and 64 % of Cmp 1a | Ca2+ signal (% of Cmp 1a) (GPR139 [1]; [5]): 65 % of Cmp 1a and 81 % of Cmp 1a and 83 % of Cmp 1a | Ca2+ signal (% of Cmp 1a) (GPR139 [1]; [6]): 44 % of Cmp 1a and 85 % of Cmp 1a and 76 % of Cmp 1a | Ca2+ signal (% of Cmp 1a) (GPR139 [1]; [7]): 31 % of Cmp 1a and 75 % of Cmp 1a and 78 % of Cmp 1a | Ca2+ signal (% of Cmp 1a) (GPR139 [1]; [8]): 9 % of Cmp 1a and 29 % of Cmp 1a and 21 % of Cmp 1a | Ca2+ signal (% of Cmp 1a) (GPR139 [1]; [9]): -11 % of Cmp 1a and 1.56 % of Cmp 1a and 5.36 % of Cmp 1a | Ca2+ signal (% of Cmp 1a) (GPR139 [1]; [10]): -2.41 % of Cmp 1a and 0.181 % of Cmp 1a and -5 % of Cmp 1a | Ca2+ signal (% of Cmp 1a) (GPR139 [1]; [11]): -4.35 % of Cmp 1a and 3.27 % of Cmp 1a and -5.39 % of Cmp 1a | Ca2+ signal (% of Cmp 1a) (GPR139 [1]; [12]): 5 % of Cmp 1a and -2.46 % of Cmp 1a and -2 % of Cmp 1a | Ca2+ signal (% of Cmp 1a) (GPR139 [1]; [13]): -3 % of Cmp 1a and -4 % of Cmp 1a and 0.00955 % of Cmp 1a | Ca2+ signal (% of Cmp 1a) (GPR139 [1]; [14]): -3.77 % of Cmp 1a and 10 % of Cmp 1a and 3.66 % of Cmp 1a | Ca2+ signal (% of Cmp 1a) (GPR139 [2]): 24 % of Cmp 1a and -10 % of Cmp 1a and 49 % of Cmp 1a | Ca2+ signal (% of Carbachol) [3]: -1.26 % of Carbachol and 0.364 % of Carbachol and 1.26 % of Carbachol
